The text below walks through data of patent US12533323B2, “Slow-release formulation” (GLYCOSCIENCE, S.L., priority 2021, dated 2026).

The data set in a line: Dissolution of trans-PMD glucovanillin conjugate in water. The format is physicochemical. To be noted: solid 50 mg in water 0.1 ml. The source says:
The resultant solution was cooled to room temperature and purified by chromatography over silica by gradient elution using 1:1 EtOAc/hexane to remove residual diol followed by 1:10 MeOH/dichloromethane to afford the title compound as an odourless white solid (0.73 g, 74%).

For the compound `COc1cc(C2O[C@H]3C[C@@H](C)CCC3C(C)(C)O2)ccc1O[C@@H]1O[C@H](CO)[C@@H](O)[C@H](O)[C@H]1O` (mixture of isomers) [Example 2, Racemic trans-PMD Glucovanillin Conjugate], the dissolution in water entry is given as “readily dissolve”.
